From ChEMBL document CHEMBL5729389, “1,4-diphenyl-1H-imidazole and 2,4-diphenylthiazole derivatives and preparation method therefor and use thereof” (2022)

Molecular target: Toll-like receptor 1/2 (Homo sapiens, UniProt O60603+Q15399)
Assay: TBD: TBD
Assay type: protein-complex assay

Toll-like receptor 1/2, sequence (O60603 whole entry): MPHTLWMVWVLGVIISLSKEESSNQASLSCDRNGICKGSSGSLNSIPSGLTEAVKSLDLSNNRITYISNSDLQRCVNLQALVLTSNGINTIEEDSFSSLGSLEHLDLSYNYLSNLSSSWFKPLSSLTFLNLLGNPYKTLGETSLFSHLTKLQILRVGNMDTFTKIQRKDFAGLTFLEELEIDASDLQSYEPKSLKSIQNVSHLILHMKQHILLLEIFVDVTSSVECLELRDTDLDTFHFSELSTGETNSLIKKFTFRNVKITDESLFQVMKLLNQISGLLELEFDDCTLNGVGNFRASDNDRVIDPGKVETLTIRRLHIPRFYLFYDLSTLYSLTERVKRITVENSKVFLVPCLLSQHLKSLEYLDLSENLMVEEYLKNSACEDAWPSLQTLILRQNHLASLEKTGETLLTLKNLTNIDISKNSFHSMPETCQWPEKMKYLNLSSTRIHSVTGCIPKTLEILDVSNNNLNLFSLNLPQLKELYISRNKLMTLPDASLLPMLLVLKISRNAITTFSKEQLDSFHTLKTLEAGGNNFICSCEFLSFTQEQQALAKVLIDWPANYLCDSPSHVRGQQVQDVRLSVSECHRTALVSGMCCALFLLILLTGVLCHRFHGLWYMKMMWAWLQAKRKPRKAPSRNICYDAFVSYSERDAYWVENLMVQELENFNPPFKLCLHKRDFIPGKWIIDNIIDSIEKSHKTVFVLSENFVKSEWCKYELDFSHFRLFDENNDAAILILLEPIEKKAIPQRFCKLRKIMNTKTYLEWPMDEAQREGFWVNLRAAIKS
Toll-like receptor 1/2, sequence (Q15399 whole entry): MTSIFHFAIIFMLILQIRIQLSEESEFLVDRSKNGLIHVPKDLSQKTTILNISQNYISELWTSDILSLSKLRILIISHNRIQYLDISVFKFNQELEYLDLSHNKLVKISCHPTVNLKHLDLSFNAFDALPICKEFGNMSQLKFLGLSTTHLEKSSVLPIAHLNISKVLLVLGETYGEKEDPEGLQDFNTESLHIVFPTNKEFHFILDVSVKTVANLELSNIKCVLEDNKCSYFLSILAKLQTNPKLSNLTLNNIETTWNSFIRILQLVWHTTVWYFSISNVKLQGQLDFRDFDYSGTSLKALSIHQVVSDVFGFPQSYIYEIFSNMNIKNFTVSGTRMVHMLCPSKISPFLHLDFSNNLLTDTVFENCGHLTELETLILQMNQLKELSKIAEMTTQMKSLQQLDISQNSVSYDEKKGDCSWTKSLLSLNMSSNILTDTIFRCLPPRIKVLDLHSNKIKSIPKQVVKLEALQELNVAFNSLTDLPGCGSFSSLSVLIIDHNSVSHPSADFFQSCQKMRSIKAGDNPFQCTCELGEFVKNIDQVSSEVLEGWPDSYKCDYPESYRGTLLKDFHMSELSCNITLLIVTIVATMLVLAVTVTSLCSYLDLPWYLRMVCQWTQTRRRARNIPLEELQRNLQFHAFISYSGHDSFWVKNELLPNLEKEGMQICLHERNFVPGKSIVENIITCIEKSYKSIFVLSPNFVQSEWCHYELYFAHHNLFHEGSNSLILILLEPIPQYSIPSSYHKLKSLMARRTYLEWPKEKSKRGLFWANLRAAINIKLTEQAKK

Row | Compound | EC50 [µM]
1 | FC(F)(F)c1ccc(-c2csc(-c3ccc(C(F)(F)F)cc3)n2)cc1 | > 1
2 | CNc1ccc([N+](=O)[O-])cc1-n1cnc(-c2ccc(C(F)(F)F)cc2OCCN)c1 | > 1
3 | O=[N+]([O-])c1ccc(-c2nc(-c3ccc(C(F)(F)F)cc3)cs2)cc1 | > 1
4 | Oc1cc(C(F)(F)F)ccc1-c1csc(-c2ccc(C(F)(F)F)cc2)n1 | > 1
5 | O=[N+]([O-])c1ccc(Cl)c(-c2nc(-c3ccc(C(F)(F)F)cc3O)cs2)c1 | > 1
6 | CNc1ccc([N+](=O)[O-])cc1-n1cnc(-c2ccc(C(F)(F)F)cc2OS(=O)(=O)O)c1 | 0.0491
7 | COc1ccc(-c2nc(-c3ccc(C(F)(F)F)cc3O)cs2)cc1 | > 1
